Results: a melting point compilation (Tetko et al.; mined from patent text by program, amines drawn as free bases though some values may be those of a salt)

melting point [°C] | SMILES
193 to 195 | CC(C)c1ccccc1Nc1nc(N)nc2c1-c1ccccc1C2
166 to 168 | CCOC(=O)c1c2n(c3cc(F)c(F)cc3c1=O)CCCC2
150 to 152 | Clc1ccc(C2CC(n3cncn3)c3ccccc3N2)cc1 (stereo not drawn)
61 to 65 | CCN(CC)c1ccc(/C=C/C(=O)CC(=O)/C=C/c2ccc3cc[nH]c3c2)c(OC)c1
215 to 218 | O=C(Nc1cccc2c(=O)cc(C(=O)O)oc12)c1ccc2oc(COCc3ccccc3)cc2c1
44 | OCCC(CCO)c1ccccn1
183 to 185 | CS(=O)(=O)Nc1ccc2c(c1)CCC1(CCC(N3CCc4ccccc4C3)CC1)O2 (stereo not drawn)
158 to 160 | CCN(c1nc(C)cc(C)n1)c1ccc(N(C)C(C)=O)cc1SC
178 to 180 | Cc1nc(Nc2ccccc2)sc1-c1cccnc1
236 to 238 | COC(=O)c1cc(CCC2CNc3nc(NC(=O)C(C)(C)C)nc(O)c3C2)c[nH]1 (stereo not drawn)
85 | O=C(NCCOc1ccccn1)C1Cc2ccccc2N1S(=O)(=O)c1ccc(-c2cccc(C(F)(F)F)c2)cc1 (stereo not drawn)
143 to 145 | Cc1nc(Cl)c(-c2c(F)cccc2F)n1-c1ccc(Cl)cc1
123 to 126 | Cc1nc(C)c(Cl)c(NCc2nccc(SCCCN3CCN(CC4CN(Cc5ccncc5)C(=O)O4)CC3)c2C)n1 (stereo not drawn)
165 | Cc1nc(C)c(C(=O)NC(C)c2ccccc2)cc1CCl (stereo not drawn)
162 | CS(=O)(=O)Nc1cc2c(cc1Oc1ccccc1)C(=O)C(Sc1ccccc1)(Sc1ccccc1)C2
122 to 123 | O=c1nc(-c2ccc(C(F)(F)F)cc2)sc2ccccc12
100 | CN(C)CCC1(CO)c2ccccc2N(C)c2ccc(Cl)cc21 (stereo not drawn)
160 to 162 | CC1CCCN(c2nc(S(C)(=O)=O)nc(Cl)c2-c2c(F)cc(F)cc2F)O1 (stereo not drawn)
120 to 122 | Fc1ccc(N2CCC(N3CCc4ccccc43)CC2)cc1
263 to 265 | O=C(O)c1ccc2c(c1)S(=O)(=O)NCN2C1CC1
155 | CC(NC(=O)CNC(=O)c1c(Cl)cccc1Cl)c1ccccc1 (stereo not drawn)
87 to 89 | Cc1ccn(-c2ccc(-c3nc4cccnc4n3-c3ccc(CCNCC(O)COc4ccc(O)cc4)cc3)c(Cl)c2)n1 (stereo not drawn)
69 to 71 | COC(=O)c1csc(-c2cc3ccccc3[nH]2)n1
215 to 216 | CC(=NO)c1nc(-c2cccnc2)[nH]c1C

melting point [°C] | SMILES
230 to 245 | COc1cc2ncnc(Nc3cccc(Br)c3)c2cc1OCC1CO1 (stereo not drawn)
164 | COc1ccc(C(=O)c2ccc3nc(Cl)nc(-c4cccc(Cl)c4)c3c2)cc1
151 to 153 | O=C1Cc2ccccc2C=Cc2c(Cl)cccc21
> 250 | CSc1nccn1-c1cccc(C2=Nc3cc(O)c(-c4ccccc4F)cc3NC(=O)C2)c1
91 | CCOC(=O)C1=C(C)NN=C(CC)C1c1cccc(C#N)c1 (stereo not drawn)
118 to 120 | NC(=O)C(c1cccc(F)c1)N(C(=O)c1cccn2ccnc12)C(F)(F)F (stereo not drawn)
117 to 119 | CC(C)P1(=O)c2ccccc2CN1c1cccc(C(F)(F)F)c1 (stereo not drawn)
230 to 231 | O=C(O)c1ccc2oc(=O)n(Cc3ccc4[nH]c(=O)[nH]c4c3)c2c1
166 to 167 | CS(=O)(=O)c1nccn1-c1nc(-c2ccc(Cl)cc2)c(CCC(=O)O)o1
138 to 139 | CC(=O)NCCC1Cc2c(C)c(OCc3ccccc3)c(C)c(C)c2O1 (racemic)
160 to 164 | O=[N+]([O-])c1cn2c(n1)O[C@@H](COc1ccc(N3CCC(Cc4ccc(OC(F)(F)F)cc4)CC3)cc1)C2
240 to 241 | Cc1ccc(NC(=O)c2ccc(CN(C)C)c(C(F)(F)F)c2)cc1-c1ccc2cnncc2c1
138 to 142 | CC(C)n1c(=O)sc2cc([N+](=O)[O-])ccc21
272 to 276 | O=C(Nc1ccc(-n2ccnc2)cc1)NC12CC3CC(CC(C3)C1)C2
218 to 221 | COc1ccc(-c2nc(O)c(-c3ccccc3)s2)cc1
106 to 107 | Cc1ccccc1-c1cc2cc(O)c(Cl)c(Cl)c2s1
187 to 189 | COc1ccc(-c2ccc(C(=O)N3Cc4cccn4Cc4ccccc43)cc2)cc1
200 | O=C(O)Cc1ccc2c3c(cccc13)C(c1ccccc1)C2 (stereo not drawn)
88 to 89 | CCOC(=O)CCCNC(=O)c1ccc2c(c1)C=CC(C)(C)O2
> 250 | Cn1c(C(=O)O)cc(=O)c2cc(O)c(=O)c(Br)cc21
96 to 97 | CC(C)(C)OC(=O)NCCCCCCCCNC(=O)OC(C)(C)C
198 to 200 | COc1ccc(C#N)c(F)c1O
87.7 | Cn1nnc2ccc(C(c3ccc(Cl)cc3)n3ccnc3)cc21 (stereo not drawn)
163 to 164 | N#CC(c1ccncc1)c1nnc(Nc2ccc3ncsc3c2)c2ccccc12 (stereo not drawn)

melting point [°C] | SMILES
105 to 106 | COc1ccc(C(NC(C)c2cc(F)cc(F)c2)c2cc(N)ccc2OC)cc1 (stereo not drawn)
175 to 177 | CCCCN1CCn2c1nc(C(=O)NCc1ccc(F)cc1C(=O)NC)c(O)c2=O
90 to 92 | COc1ccc(C(=O)OC2CCCC2)nc1Cl
197 to 199 | CC(C)Nc1nc2cc(Cl)c(Cl)cc2n1C1OC(CO)C(O)C1O (stereo not drawn)
290 to 291 | Cc1[nH]n(Cc2cc([N+](=O)[O-])ccc2Cl)c2nc(-c3ccncc3)nc(=O)c1-2
130 to 132 | CC(C)(C)c1nc2cc(N3CCCC3)c(N)cc2s1
186 to 187 | CCCCc1cc2ccccc2c(Oc2ccc(/C=C/C(=O)O)cc2)c1-c1ccc(OC)cc1
110 | CCCCCCCCSc1cc(SCCCCCCCC)c2ccc3c(SCCCCCCCC)cc(SCCCCCCCC)c4ccc1c2c43
124 to 127 | O=C(CCCCN1CCCCC1)c1ccc2c(c1)Cc1cc(C(=O)CCCCN3CCCCC3)ccc1-2
138 to 139 | O=C(Nc1cc(C(F)(F)F)ccc1N1CCCCCC1)c1ccncc1
98 to 104 | COc1cc(OC)cc(C(O)C(=O)c2ccccc2)c1 (stereo not drawn)
187 to 188 | O=C(O)c1cc(C#Cc2ccccc2)cc2c1NCCC2
124 to 125 | Fc1ccc2[nH]nc(-c3ccccc3)c2c1
110 to 111 | COC(=O)CC1c2ccccc2C(=O)N1c1ccc(Cl)cn1 (stereo not drawn)
118 to 119 | CN1CC(c2nccc(CCc3ccccc3)n2)=C(O)C1=O
226 | O=C(Cn1ccnc1)Nc1cccc2nc(N[C@@H]3CCc4ccccc43)ccc12
189 to 193 | CN1CCC(O)(c2cn(-c3ccnc(NC4CCCC4)n3)c(-c3cccc(C(F)(F)F)c3)n2)CC1
106 | CON=C(C(=O)OC)c1cccs1
107 to 108 | CC(=O)N1CCc2c(N)cccc2C1
67 to 68 | CCC(=O)CCCCCCC(=O)c1ccc(OCc2ccccc2)c(OCc2ccccc2)c1
172 to 174 | CCCOCCc1ccc(-c2ccc3c(c2)C=C(C(=O)Nc2ccc(CN(C)C4CCOCC4)cc2)CCS3(=O)=O)c(F)c1
184 to 185 | CN1CCN(C)CC(OC(=O)c2n[nH]c3ccccc23)C1
255 | CCOC(=O)c1cn(C(C)(C)C)c2nc(N3CC[C@H](N)C3)c(F)cc2c1=O
241 to 243 | O=c1[nH]c2ccccc2c(=O)n1Cc1cccnc1

melting point [°C] | SMILES
60 | COC=C(C(=O)OC)c1ccccc1COc1ccccc1
123 to 124 | CN1C(c2ccc(N3CCCCC3)cc2)=NC(C(F)(F)F)(C(F)(F)F)C1NC(=O)c1ccc(F)cc1 (stereo not drawn)
91 to 94 | O=C(O)c1ccc(OCCNC(=O)C2Cc3ccccc3N2S(=O)(=O)c2ccc(-c3ccc(F)cc3F)cc2)cc1F (stereo not drawn)
184 to 185 | Nc1cc(-n2c(=O)n(-c3ccccc3)c3ccccc32)ccn1
158 to 159 | Cc1oc(-c2ccccc2)nc1/C=C/c1ccc(C=O)cc1
168 to 169 | CC(C)CNCc1cc2cc(NC(=O)c3ccc(C#CC4(O)CCC4)cc3)ccc2n1C
200 to 201 | CC(C)=NNC1=NCc2c[nH]c3cccc1c23
136 to 140 | CON(C)S(=O)(=O)c1ccccc1S(N)(=O)=O
75.5 to 79 | CCCCc1nc2c(N)nc3ccccc3c2n1CCCCNS(=O)(=O)c1ccccc1
146 to 148 | CCCCCCOc1ccc(NC(=O)N(C)c2cccc(-c3ccc(CC4SC(=O)NC4=O)cc3)c2)cc1 (stereo not drawn)
58 to 60 | O=C(O)COc1cccc(-c2ccccc2OC2OC(CO)C(O)C(O)C2O)c1 (stereo not drawn)
123 to 125 | CC(C)c1cccc(C(C)C)c1NC(=O)CN1CCN(c2cccc(Sc3nc4ccccc4[nH]3)c2)CC1
117 to 120 | COc1ccc(OC)c2c1CC[C@](O)(C(C)=O)C2
236 to 237 | CCc1cc(Br)c2c(=O)oc(=O)[nH]c2c1
253 to 255 | Cc1[nH]c(C=O)c(C)c1-c1nc2ccc(C(=O)c3ccccc3)cc2[nH]1
130 to 131 | COC1(OCCc2nc(C(C)C)c(Sc3cc(Cl)cc(Cl)c3)n2C)c2ccccc2-c2ccccc21
153 to 157 | O=C1CCCc2nc3ccccc3c(NCc3ccc(OCc4ccccc4)cc3)c21
143 | COc1ccc(CCN(C)CCCCc2ccc(NC(=O)c3cccc4c(=O)c5ccccc5[nH]c34)cc2)cc1
221 | Cc1cc(Cl)cc(C(=O)Nc2ccnc(Cl)c2)n1
52 to 53 | CCCNC(=O)C(C)c1nc(CC)no1 (stereo not drawn)
117 to 118 | COCc1nc2ncccc2n1Cc1ccc(C(=O)N(C(C)C)C2CCCCC2)cc1OC
163 to 169 | CC(NC(Nc1cc(Cl)cc(Cl)c1)=C(C#N)S(=O)(=O)c1ccc(Cl)cc1)C(C)(C)C (stereo not drawn)
98 | CCOC(=O)C1=C(C)NC(COC(C)=O)=C(C(=O)OCC)C1c1ccccc1Cl (stereo not drawn)
197 to 199 | Clc1cc(-c2ccc3nnn(Cc4ccc5ncccc5c4)c3n2)ccn1

SMILES | melting point [°C]
CN1C(=O)[C@H](NC(=O)C2Cc3ccccc3O2)N=C(c2ccccc2)c2ccccc21 (stereo partly drawn) | 141 to 180
CCC1CC(=O)C=C2CCC3C4CCC(=O)C4(C)CCC3C21C (stereo not drawn) | 168
